Data published in US20240239799A1, “(S)-1-(5-((PYRIDIN-3-YL)THIO)PYRAZIN-2-YL)-4'H,6'H-SPIRO[PIPERIDINE-4,5'-PYRROLO [1,2-B]PYRAZOL]-4'-AMINE DERIVATIVES AND SIMILAR COMPOUNDS AS SHP2 INHIBITORS FOR THE TREATMENT OF E.G. CANCER” (C.N.C.C.S. S.C.A.R.L. COLLEZIONE NAZIONALE DEI COMPOSTI …, priority 2021, published 2024).
Like-named read-outs stand apart in the source and are kept apart here.

How the values were obtained:
[1] = target: T1, SHP-2 enzyme (Met1-Leu525) (Homo sapiens, UniProt Q06124); assay: SHP2 inhibition enzymatic assay (DiFMUP substrate, IRS1 peptide activation); format: biochemical; conditions: 0.5 nM SHP-2, 500 nM IRS1 peptide, 75 μM DiFMUP; read-out: SHP2wt - IC50
T1 construct: synthetized by Origene, Met1-Leu525, cat #TP750155; purchased Origene TP750155
T1 sequence (Q06124 1-525): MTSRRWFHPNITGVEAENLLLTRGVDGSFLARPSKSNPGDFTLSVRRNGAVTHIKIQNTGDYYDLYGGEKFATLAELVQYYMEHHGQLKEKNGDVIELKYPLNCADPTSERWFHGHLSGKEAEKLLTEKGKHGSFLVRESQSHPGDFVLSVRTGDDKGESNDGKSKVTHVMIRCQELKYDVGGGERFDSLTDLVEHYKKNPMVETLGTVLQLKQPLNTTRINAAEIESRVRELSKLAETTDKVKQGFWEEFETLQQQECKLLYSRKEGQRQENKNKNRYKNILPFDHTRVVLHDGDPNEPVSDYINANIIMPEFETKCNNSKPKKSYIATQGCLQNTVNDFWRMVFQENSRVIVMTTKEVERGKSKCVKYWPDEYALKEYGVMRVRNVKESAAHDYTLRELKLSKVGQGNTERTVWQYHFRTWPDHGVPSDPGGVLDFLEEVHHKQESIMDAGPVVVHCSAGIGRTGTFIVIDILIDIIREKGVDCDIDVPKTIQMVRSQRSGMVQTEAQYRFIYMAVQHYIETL

[2] = system: phospho-ERK1/2 (Thr202/Tyr204) in KYSE-520 cells; assay: Phospho-ERK cellular assay (TR-FRET); format: cell-based; conditions: Homo sapiens, KYSE-520, 2 h, read-out: pERK IC50
Procedure, shortened: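 KYSE-520 cells plated overnight, then exposed to compound for 2 h at 37° C and lysed. Phospho-ERK1/2 (Thr202/Tyr204) detected by TR-FRET with Eu-cryptate and D2 antibodies after overnight incubation at rt. IC50 from four-parameter fit, normalised to DMSO (0%) and no-cell (100%) controls.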

[3] = target: T2, SHP2 (Avi-G4SG4S-PTPN11(1-525)) (Homo sapiens, UniProt Q06124); assay: Binding kinetic assay by surface plasmon resonance (SPR); conditions: Biacore T200, single cycle kinetic, 1:1 Langmuir binding model; for koff: triplicate
T2 construct: (Avi-G4SG4S-PTPN11(1-525)); purchased Viva Biotech Ltd
T2 sequence (Q06124 1-525): T1 sequence (Q06124 1-525)
Protocol: A binding assay for measuring SHP2 inhibitors binding kinetic was developed using a Biacore T200 Instrument (Cytiva, Sweden). […] Data analysis was performed by Biacore T200 Evaluation software (Cytiva), and kinetic parameters were evaluated by a global fitting according to a 1:1 Langmuir binding model. Each molecule was tested in triplicate on separate flow channels.

IC50 [1] [nM] | IC50 ([2]; KYSE-520 cells, 2 h at 37° C.) [nM] | Residence time 1/koff SPR [3] [s] | koff [3] [s⁻¹] | SMILES | IC50 [2] [nM]
≤ 50 | < 100 | 17007 | 5.88e-05 | Nc1nc(N2CCC3(CC2)Cn2ncc(Cl)c2[C@H]3N)cnc1Sc1ccnc(N)c1Cl [Example 5, (S)-1-(6-amino-5-((2-amino-3-chloropyridin-4-yl)thio)pyrazin-2-yl)-3′-chloro-4′H,6′H-spiro[piperidine-4,5′-pyrrolo[1,2-b]pyrazol]-4′-amine] | 
≤ 50 | < 100 | 2740 | 0.000365 | Nc1nccc(Sc2cnc(N3CCC4(CC3)Cn3nccc3[C@H]4N)cn2)c1Cl [Example 6, (S)-1-(5-((2-amino-3-chloropyridin-4-yl)thio)pyrazin-2-yl)-4′H,6′H-spiro[piperidine-4,5′-pyrrolo[1,2-b]pyrazol]-4′-amine] | 
≤ 50 | < 100 | 3185 | 0.000314 | Nc1nccc(Sc2cnc(N3CCC4(CC3)Cn3ncc(Cl)c3[C@H]4N)cn2)c1Cl [Example 7, (S)-1-(5-((2-amino-3-chloropyridin-4-yl)thio)pyrazin-2-yl)-3′-chloro-4′H,6′H-spiro[piperidine-4,5′-pyrrolo[1,2-b]pyrazol]-4′-amine] | 
≤ 50 | < 100 | 8621 | 0.000116 | Nc1nccc(Sc2cnc(N3CCC4(CC3)Cn3ncc(Br)c3[C@H]4N)cn2)c1Cl [Example 8, (S)-1-(5-((2-amino-3-chloropyridin-4-yl)thio)pyrazin-2-yl)-3′-bromo-4′H,6′H-spiro[piperidine-4,5′-pyrrolo[1,2-b]pyrazol]-4′-amine] | 
≤ 50 | < 100 | 9615 | 0.000104 | Nc1nccc(Sc2cnc(N3CCC4(CC3)Cn3ncc(F)c3[C@H]4N)cn2)c1Cl [Example 9, (S)-1-(5-((2-amino-3-chloropyridin-4-yl)thio)pyrazin-2-yl)-3′-fluoro-4′H,6′H-spiro[piperidine-4,5′-pyrrolo[1,2-b]pyrazol]-4′-amine] | 
≤ 50 | < 100 | 29412 | 3.4e-05 | Cc1cc2n(n1)CC1(CCN(c3cnc(Sc4ccnc(N)c4Cl)cn3)CC1)[C@@H]2N [Example 11, (S)-1-(5-((2-amino-3-chloropyridin-4-yl)thio)pyrazin-2-yl)-2′-methyl-4′H,6′H-spiro[piperidine-4,5′-pyrrolo[1,2-b]pyrazol]-4′-amine] | 
≤ 50 | < 100 | 3333 | 0.0003 | N[C@@H]1c2ccnn2CC12CCN(c1cnc(Sc3ccnc4c3OC[C@@H]3CCCN43)cn1)CC2 [Example 13, (S)-1-(5-(((S)-6a,7,8,9-tetrahydro-6H-pyrido[3,2-b]pyrrolo[1,2-d][1,4]oxazin-4-yl)thio)pyrazin-2-yl)-4′H,6′H-spiro[piperidine-4,5′-pyrrolo[1,2-b]pyrazol]-4′-amine] | 
≤ 50 | < 100 | 14535 | 6.88e-05 | Cc1nn2c(c1Cl)[C@@H](N)C1(CCN(c3cnc(Sc4ccnc(N)c4Cl)cn3)CC1)C2 [Example 14, (S)-1-(5-((2-amino-3-chloropyridin-4-yl)thio)pyrazin-2-yl)-3′-chloro-2′-methyl-4′H,6′H-spiro[piperidine-4,5′-pyrrolo[1,2-b]pyrazol]-4′-amine] | 
≤ 50 | < 100 | 16026 | 6.24e-05 | Cn1cc2c(Cl)c(Sc3cnc(N4CCC5(CC4)Cn4nccc4[C@H]5N)n4ccnc34)ccc2n1 [Example 16, (S)-1-(8-((4-chloro-2-methyl-2H-indazol-5-yl)thio)imidazo[1,2-c]pyrimidin-5-yl)-4′H,6′H-spiro[piperidine-4,5′-pyrrolo[1,2-b]pyrazol]-4′-amine] | 
≤ 50 | < 100 | 37175 | 2.69e-05 | Nc1nccc(Sc2cnc(N3CCC4(CC3)Cn3ncc(Cl)c3[C@H]4N)n3ccnc23)c1Cl [Example 18, (S)-1-(8-((2-amino-3-chloropyridin-4-yl)thio)imidazo[1,2-c]pyrimidin-5-yl)-3′-chloro-4′H,6′H-spiro[piperidine-4,5′-pyrrolo[1,2-b]pyrazol]-4′-amine] | 
≤ 50 | < 100 | 5464 | 0.000183 | Nc1nccc(Sc2cnc(N3CCC4(CC3)Cn3nccc3[C@H]4N)c3cncn23)c1Cl [Example 19, (S)-1-(5-((2-amino-3-chloropyridin-4-yl)thio)imidazo[1,5-a]pyrazin-8-yl)-4′H,6′H-spiro[piperidine-4,5′-pyrrolo[1,2-b]pyrazol]-4′-amine] | 
≤ 50 | < 100 |  |  | Cn1c(N2CCC3(CC2)Cn2nccc2[C@H]3N)ncc(Sc2ccnc(N)c2Cl)c1=O [Example 76, (S)-5-((2-amino-3-chloropyridin-4-yl)thio)-2-(4′-amino-4′H,6′H-spiro[piperidine-4,5′-pyrrolo[1,2-b]pyrazol]-1-yl)-3-methylpyrimidin-4(3H)-one] | 
≤ 50 | 100 to 500 |  |  | Cc1nc(N2CCC3(CC2)Cn2nccc2[C@H]3N)cc(=O)n1-c1cccc(Cl)c1Cl [Example 77, (S)-6-(4′-amino-4′H,6′H-spiro[piperidine-4,5′-pyrrolo[1,2-b]pyrazol]-1-yl)-3-(2,3-dichlorophenyl)-2-methylpyrimidin-4(3H)-one] | 
≤ 50 | 100 to 500 |  |  | Cc1nc(N2CCC3(CC2)Cn2nccc2[C@H]3N)c(Cl)c(=O)n1-c1cccc(Cl)c1Cl [Example 78, (S)-6-(4′-amino-4′H,6′H-spiro[piperidine-4,5′-pyrrolo[1,2-b]pyrazol]-1-yl)-5-chloro-3-(2,3-dichlorophenyl)-2-methylpyrimidin-4(3H)-one] | 
≤ 50 | < 100 |  |  | N[C@@H]1c2ccnn2CC12CCN(c1cnc(Sc3ccnc4c(F)cccc34)cn1)CC2 [Example 79, (S)-1-(5-((8-fluoroquinolin-4-yl)thio)pyrazin-2-yl)-4′H,6′H-spiro[piperidine-4,5′-pyrrolo[1,2-b]pyrazol]-4′-amine] | 
≤ 50 | < 100 |  |  | N[C@@H]1c2ccnn2CC12CCN(c1cnc(Sc3ccncc3Cl)cn1)CC2 [Example 80, (S)-1-(5-((3-chloropyridin-4-yl)thio)pyrazin-2-yl)-4′H,6′H-spiro[piperidine-4,5′-pyrrolo[1,2-b]pyrazol]-4′-amine] | 
≤ 50 | < 100 |  |  | Cc1nccc(Sc2cnc(N3CCC4(CC3)Cn3nccc3[C@H]4N)cn2)c1F [Example 81, (S)-1-(5-((3-fluoro-2-methylpyridin-4-yl)thio)pyrazin-2-yl)-4′H,6′H-spiro[piperidine-4,5′-pyrrolo[1,2-b]pyrazol]-4′-amine] | 
≤ 50 | < 100 |  |  | N[C@@H]1c2cccn2CC12CCN(c1cnc(Sc3ccnc(-n4cccn4)c3Cl)cn1)CC2 [Example 82, (S)-1-(5-((3-chloro-2-(1H-pyrazol-1-yl)pyridin-4-yl)thio)pyrazin-2-yl)-1′H,3′H-spiro[piperidine-4,2′-pyrrolizin]-1′-amine] | 
≤ 50 | < 100 |  |  | N[C@@H]1c2ccnn2CC12CCN(c1cnc(Sc3cccc(Cl)c3Cl)cn1)CC2 [Example 83, (S)-1-(5-((2,3-dichlorophenyl)thio)pyrazin-2-yl)-4′H,6′H-spiro[piperidine-4,5′-pyrrolo[1,2-b]pyrazol]-4′-amine] | 
≤ 50 | < 100 |  |  | N[C@@H]1c2ccnn2CC12CCN(c1ccc(Sc3cccc(Cl)c3Cl)nc1)CC2 [Example 84, (S)-1-(6-((2,3-dichlorophenyl)thio)pyridin-3-yl)-4′H,6′H-spiro[piperidine-4,5′-pyrrolo[1,2-b]pyrazol]-4′-amine] | 
≤ 50 | < 100 |  |  | N[C@@H]1c2ccnn2CC12CCN(c1nccn3c(-c4cccc(Cl)c4Cl)ncc13)CC2 [Example 85, (S)-1-(3-(2,3-dichlorophenyl)imidazo[1,5-a]pyrazin-8-yl)-4′H,6′H-spiro[piperidine-4,5′-pyrrolo[1,2-b]pyrazol]-4′-amine] | 

SMILES | IC50 [1] [nM] | IC50 ([2]; KYSE-520 cells, 2 h at 37° C.) [nM] | Residence time 1/koff SPR [3] [s] | koff [3] [s⁻¹] | IC50 [2] [nM]
Cc1nc(N2CCC3(CC2)Cn2cccc2[C@H]3N)cc(=O)n1-c1cccc(Cl)c1Cl [Example 86, (S)-6-(1′-amino-1′H,3′H-spiro[piperidine-4,2′-pyrrolizin]-1-yl)-3-(2,3-dichlorophenyl)-2-methylpyrimidin-4(3H)-one] | ≤ 50 |  |  |  | 100 to 500
